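Protocol summary: plate cells (96-well), add compound at 5 concentrations, incubate 48 h, interpolate endpoints linearly. Abbreviation: GI50, concentration required for 50% inhibition of growth. TGI denotes the concentration required for complete inhibition of growth.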
Columns and labels:
Test in all cases: NCI-60 cell line screen, 48 h
[1] = test system: SK-MEL-28 melanoma
[2] = test system: OVCAR-5 ovarian
[3] = test system: HL-60(TB) leukemia
[4] = test system: HT29 colon
[5] = test system: LOX IMVI melanoma
[6] = test system: CAKI-1 renal
[7] = test system: SNB-19 CNS
[8] = test system: RPMI-8226 leukemia
[9] = test system: OVCAR-3 ovarian
[10] = test system: HCT-116 colon

| SMILES | TGI [1] [µM] | TGI [2] [µM] | TGI [3] [µM] | TGI [4] [µM] | TGI [5] [µM] | TGI [6] [µM] | TGI [7] [µM] | TGI [8] [µM] | TGI [9] [µM] | GI50 [1] [µM] | GI50 [2] [µM] | GI50 [3] [µM] | GI50 [10] [µM] | TGI [10] [µM] | GI50 [4] [µM] | GI50 [5] [µM] | GI50 [6] [µM] | GI50 [8] [µM] | GI50 [9] [µM] | GI50 [7] [µM] |
| --- | --- | --- | --- | --- | --- | --- | --- | --- | --- | --- | --- | --- | --- | --- | --- | --- | --- | --- | --- | --- |
| O=c1[nH]cnc2c(COCCO)c[nH]c12 | > 100 | > 100 | > 100 | > 100 | > 100 | > 100 | > 100 | > 100 | > 100 |  |  |  |  |  |  |  |  |  |  |  |
| COC(=O)C(C(=O)OC)C(Br)C(Br)C(Br)c1ccccc1 (centres undefined) | 25.3 | 37.5 | 6.47 | 21.8 | 3.34 | 17.7 |  | 7.8 | 7.63 | 12.5 | 19.9 | 2.59 | 2 | 3.82 | 5.68 | 1.5 | 4.97 | 2.68 | 2.98 |  |
| O=C(/C=C(\C(=O)c1cccs1)c1cccs1)c1ccc(C(=O)/C=C(\C(=O)c2cccs2)c2cccs2)cc1 | > 100 |  | > 100 | > 100 |  | > 100 | > 100 | > 100 |  |  |  |  |  | > 100 |  |  |  |  |  |  |
| N#CC(C#N)=C/C=C(\Sc1ccc(F)cc1Cl)c1ccc(Cl)cc1 | 10.4 | 2.61 | 49.2 |  | 1.3 | 3.61 | 23.6 | 0.515 | 2.64 | 1.23 | 0.605 | 0.52 | 0.366 | 1.89 |  | 0.318 | 0.427 | 0.0963 | 0.762 | 4.54 |
| Nc1nc(N)c2nc3c(nc2n1)CCCCCCCCCC3 | > 100 | > 100 | > 100 |  | > 100 | > 100 | > 100 | > 100 | > 100 | > 100 | 1.75 | 1.95 | 0.379 | > 100 |  | 0.733 | 3.36 | > 100 | 6.15 | 6.43 |
| O=c1cccc(-c2cccc(=O)[nH]2)[nH]1 | > 100 |  | > 100 | > 100 | > 100 | > 100 |  | > 100 | > 100 |  |  |  |  | > 100 |  |  |  |  |  |  |
| CCN1C(=NCCO)NS(=O)(=O)c2ccccc21 | > 100 | > 100 | > 100 | > 100 | > 100 | > 100 | > 100 |  | > 100 |  |  |  |  | > 100 |  |  |  |  |  |  |
| O=Cc1ccc(-c2ccc(-c3nc4ccccc4s3)cc2)s1 | > 100 | > 100 | > 100 | > 100 | > 100 | > 100 | > 100 |  | 98.3 | > 100 | > 100 | 34.8 | 35.3 | > 100 | 77.3 | 68.1 | 48.2 |  | 27.2 | > 100 |
| CCOc1ccc2c(c1)c(CC(=O)O)cn2C | > 100 |  | > 100 | > 100 | > 100 | > 100 | > 100 | > 100 | > 100 |  |  |  |  | > 100 |  |  |  |  |  |  |
| O=C(NCCCl)SCCO | > 100 | > 100 | > 100 | > 100 |  |  | > 100 | > 100 | > 100 |  |  |  |  | > 100 |  |  |  |  |  |  |
| COc1cccc(N2C(=O)C3C4C=C5c6ccccc6N(c6ccccc6)C5(C3C2=O)[C@H]2C(=O)N(c3cccc(OC)c3)C(=O)[C@@H]42)c1 (some centres undefined) |  | > 100 | > 100 | > 100 | > 100 | > 100 | > 100 | > 100 | > 100 |  |  |  |  | > 100 |  |  |  |  |  |  |
| COC(=O)Cc1cc(=O)[nH]c2c1C(=O)CCC2 | > 100 | > 100 | > 100 | > 100 |  |  | > 100 | > 100 | > 100 |  |  |  |  |  |  |  |  |  |  |  |
| Cc1ccc(S(=O)(=O)N/N=C/C(C)C)cc1 |  | > 100 | > 100 | > 100 | > 100 | > 100 | > 100 | > 100 | > 100 |  |  |  |  | > 100 |  |  |  |  |  |  |
| COCCOCCOCc1n(Cc2ccc3ccccc3n2)c2ccccc2[n+]1Cc1ccc2ccccc2n1 | 14.5 | 18 | 1.31 | 10.6 | 10.4 |  | 13.5 | 12.4 | 13.8 | 0.759 | 2.5 | 0.26 | 1.26 | 11.7 | 0.53 | 1.14 |  | 0.138 | 0.479 | 0.444 |
| CC(=O)c1ccc(NC(=O)COC(=O)c2cccc3c(=O)c4ccccc4[nH]c23)cc1 | > 100 |  | > 100 | > 100 | 51.5 | > 100 | 68.6 |  | 69.4 |  |  |  |  | 42.8 |  |  |  |  |  |  |
| O=C1CCCCC12CCC/C2=N\O (centres undefined) | > 100 |  | > 100 |  |  | > 100 | > 100 | > 100 | > 100 |  |  |  |  | > 100 |  |  |  |  |  |  |
| O=[N+]([O-])c1cc2no[n+]([O-])c2cc1N1CCCCC1 | 32.9 | 24.8 | 5.29 | 3.86 | 4.81 | 12.5 | 35.5 | 6.64 |  |  |  |  |  | 5.99 |  |  |  |  |  |  |
| OCCN(CCO)c1cccc(N(CCO)CCO)n1 | > 100 |  | > 100 |  | > 100 | > 100 | > 100 | > 100 | > 100 |  |  |  |  | > 100 |  |  |  |  |  |  |
| COc1cc2ccnc3c(=C(SC)SC)c(=O)c(c1OC)c23 | 26 | 35.9 | 5.04 | 26.2 | 10.7 | 23.4 | > 100 | 15.9 | 28.4 |  |  |  |  |  |  |  |  |  |  |  |
| O=C1OC(=O)C2C3C=CC(C12)C1C2C=CC2C31 (centres undefined) | > 100 | > 100 | > 100 | > 100 | > 100 | > 100 | > 100 |  |  |  |  |  |  | > 100 |  |  |  |  |  |  |

From PubChem BioAssay (NCI)
